Data: patent US9266835B2, “Quinoline derivatives useful as CB-1 inverse agonists” (JANSSEN PHARMACEUTICA NV, priority 2014, dated 2016)
Structures can show the parent of a compound that is named as a salt.

Assays:
[1] = molecular target: Human CB2R (Cannabinoid receptor 2) (Homo sapiens (Human), UniProt P34972); assay: CB-2 in vitro cAMP assay (HTRF), inverse agonism; assay type: cell-based; conditions: mean where tested more than once
[2] = molecular target: Human CB1R (Cannabinoid receptor 1) (Homo sapiens (Human), UniProt P21554); assay: CB-1 in vitro cAMP assay (HTRF), inverse agonism; assay type: cell-based; conditions: mean where tested more than once
Chain of Human CB1R (Cannabinoid receptor 1) (P21554 whole entry): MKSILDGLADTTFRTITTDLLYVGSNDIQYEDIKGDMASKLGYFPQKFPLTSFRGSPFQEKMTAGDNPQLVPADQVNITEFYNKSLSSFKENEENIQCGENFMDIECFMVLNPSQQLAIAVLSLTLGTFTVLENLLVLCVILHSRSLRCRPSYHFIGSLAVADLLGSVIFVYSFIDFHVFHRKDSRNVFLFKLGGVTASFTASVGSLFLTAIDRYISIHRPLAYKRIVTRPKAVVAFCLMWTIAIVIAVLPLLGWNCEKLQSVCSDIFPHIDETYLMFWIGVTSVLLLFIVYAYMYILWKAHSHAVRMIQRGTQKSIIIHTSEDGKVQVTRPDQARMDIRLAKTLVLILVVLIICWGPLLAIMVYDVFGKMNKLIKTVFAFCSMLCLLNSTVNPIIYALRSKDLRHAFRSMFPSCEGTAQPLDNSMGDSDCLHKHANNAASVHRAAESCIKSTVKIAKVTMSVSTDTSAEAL

Chain of Human CB2R (Cannabinoid receptor 2) (P34972 whole entry): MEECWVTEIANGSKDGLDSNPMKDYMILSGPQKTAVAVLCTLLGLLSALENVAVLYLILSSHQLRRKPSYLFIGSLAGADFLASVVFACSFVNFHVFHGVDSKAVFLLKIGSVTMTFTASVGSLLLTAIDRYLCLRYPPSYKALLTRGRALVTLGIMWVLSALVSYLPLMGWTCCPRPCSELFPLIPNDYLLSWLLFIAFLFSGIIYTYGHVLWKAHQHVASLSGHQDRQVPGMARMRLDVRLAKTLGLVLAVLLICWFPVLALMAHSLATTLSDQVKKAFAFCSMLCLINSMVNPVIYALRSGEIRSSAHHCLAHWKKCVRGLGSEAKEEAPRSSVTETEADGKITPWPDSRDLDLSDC

Row | SMILES | EC50 [1] [nM] | EC50 [2] [nM]
1 | O=C(O)CCCOc1ccc(Nc2cc(=O)[nH]c3ccc(C(c4ccc(Cl)cc4)c4ccc(Cl)cc4)cc23)cc1 [Compound 121, 4-[4-({6-[Bis(4-chlorophenyl)methyl]-2-oxo-1,2-dihydroquinolin-4-yl}amino)phenoxy]butanoic acid] | > 10000 | 1010
2 | O=C(O)c1ccc(S(=O)(=O)N2CCC(Nc3cc(=O)[nH]c4ccc(C(c5ccc(Cl)cc5)c5ccc(Cl)cc5)cc34)CC2)cc1 [Compound 122, 4-((4-((6-(bis(4-chlorophenyl)methyl)-2-oxo-1,2-dihydroquinolin-4-yl)amino)piperidin-1-yl)sulfonyl)benzoic acid] | 240 | 159
3 | NC(=O)CCCOc1ccc(Nc2cc(=O)[nH]c3ccc(C(c4ccc(Cl)cc4)c4ccc(Cl)cc4)cc23)cc1 [Compound 123, 4-[4-({6-[Bis(4-chlorophenyl)methyl]-2-oxo-1,2-dihydroquinolin-4-yl}amino)phenoxy]butanamide] | > 10000 | 219
4 | COC(=O)Cc1ccc(Nc2cc(=O)[nH]c3ccc(C(c4ccc(Cl)cc4)c4ccc(Cl)cc4)cc23)cc1 [Compound 124, Methyl [4-({6-[bis(4-chlorophenyl)methyl]-2-oxo-1,2-dihydroquinolin-4-yl}amino)phenyl]acetate] | > 10000 | 27
5 | O=C(O)Cc1ccc(Nc2cc(=O)[nH]c3ccc(C(c4ccc(Cl)cc4)c4ccc(Cl)cc4)cc23)cc1 [Compound 125, [4-({6-[Bis(4-chlorophenyl)methyl]-2-oxo-1,2-dihydroquinolin-4-yl}amino)phenyl]acetic acid] | > 10000 | 2480
6 | NC(=O)Cc1ccc(Nc2cc(=O)[nH]c3ccc(C(c4ccc(Cl)cc4)c4ccc(Cl)cc4)cc23)cc1 [Compound 126, 2-[4-({6-[Bis(4-chlorophenyl)methyl]-2-oxo-1,2-dihydroquinolin-4-yl}amino)phenyl]acetamide] | 8100 | 79
7 | O=C(O)c1ccc(CN2CCC(Nc3cc(=O)[nH]c4ccc(C(c5ccc(Cl)cc5)c5ccc(Cl)cc5)cc34)CC2)cc1 [Compound 127, 4-{[4-({6-[Bis(4-chlorophenyl)methyl]-2-oxo-1,2-dihydroquinolin-4-yl}amino)piperidin-1-yl]methyl}benzoic acid] | > 10000 | 876
8 | O=C(O)c1ccc(CN2CCC(Nc3cc(=O)[nH]c4ccc(C(c5ccc(Cl)cc5)c5ccc(Cl)cc5)cc34)CC2)s1 [Compound 128, 5-{[4-({6-[Bis(4-chlorophenyl)methyl]-2-oxo-1,2-dihydroquinolin-4-yl}amino)piperidin-1-yl]methyl}thiophene-2-carboxylic acid] | 9700 | 293
9 | O=C(O)c1cccc(CN2CCC(Nc3cc(=O)[nH]c4ccc(C(c5ccc(Cl)cc5)c5ccc(Cl)cc5)cc34)CC2)c1 [Compound 129, 3-((4-((6-(bis(4-chlorophenyl)methyl)-2-oxo-1,2-dihydroquinolin-4-yl)amino)piperidin-1-yl)methyl)benzoic acid] | > 10000 | 157
10 | O=C(O)c1ccc(S(=O)(=O)N2CCC(Nc3cc(=O)[nH]c4ccc(C(c5ccc(Cl)cc5)c5ccc(Cl)cc5)cc34)CC2)s1 [Compound 130, 5-[4-([6-[bis(4-chlorophenyl)methyl]-2-hydroxyquinolin-4-yl]amino)piperidine-1-sulfonyl]thiophene-2-carboxylic acid, trifluoroacetic acid salt] | 690 | 113
11 | O=C(O)c1ccc(S(=O)(=O)N2CCC(Nc3cc(=O)[nH]c4ccc(C(c5ccc(Cl)cc5)c5ccc(Cl)cc5)cc34)CC2)o1 [Compound 131, 5-{[4-({6-[Bis(4-chlorophenyl)methyl]-2-oxo-1,2-dihydroquinolin-4-yl}amino)piperidin-1-yl]sulfonyl}furan-2-carboxylic acid] | 3930 | 251
12 | O=c1cc(Nc2ccc(-c3ccccc3)cc2)c2cc(C(c3ccc(Cl)cc3)c3ccc(Cl)cc3)ccc2[nH]1 [Compound 133, 4-(Biphenyl-4-ylamino)-6-[bis(4-chlorophenyl)methyl]-quinolin-2(1H)-one] | > 10000 | 73
13 | Cc1ccc(Nc2cc(=O)[nH]c3ccc(C(c4ccc(Cl)cc4)c4ccc(Cl)cc4)cc23)cn1 [Compound 134, 6-[Bis(4-chlorophenyl)methyl]-4-[(6-methylpyridin-3-yl)amino]quinolin-2(1H)-one] | 6700 | 300
14 | O=c1cc(NC2CCN(S(=O)(=O)C(F)(F)F)CC2)c2cc(C(c3ccc(Cl)cc3)N3CCN(c4ccccc4)CC3)ccc2[nH]1 (stereo not drawn) [Compound 137, 6-((4-chlorophenyl)(4-phenylpiperazin-1-yl)methyl)-4-((1-((trifluoromethyl)sulfonyl)piperidin-4-yl)amino)quinolin-2(1H)-one] | > 10000 | 290
15 | O=C(c1ccc(Nc2cc(=O)[nH]c3ccc(C(c4ccc(Cl)cc4)c4ccc(Cl)cc4)cc23)cc1F)N1CCCC1 [Compound 138] | 750 | 227
16 | CCCCNc1cc(C(c2ccc(Cl)cc2)c2ccc(Cl)cc2)cc2c(NC3CCN(S(=O)(=O)C(F)(F)F)CC3)cc(=O)n(C)c12 [Compound 139, 6-[bis(4-chlorophenyl)methyl]-8-(butylamino)-1-methyl-4-[[1-(trifluoromethane)sulfonylpiperidin-4-yl]amino]-1,2-dihydroquinolin-2-one] | > 10000 | > 10000
17 | COCCCc1cc(C(c2ccc(Cl)cc2)c2ccc(Cl)cc2)cc2c(NC3CCN(S(=O)(=O)C(F)(F)F)CC3)cc(=O)[nH]c12 [Compound 140, 6-(bis(4-chlorophenyl)methyl)-8-(3-methoxypropyl)-4-((1-((trifluoromethyl)sulfonyl)piperidin-4-yl)amino)quinolin-2(1H)-one] | 60 | 13

Row | SMILES | EC50 [1] [nM] | EC50 [2] [nM]
18 | NCCCCNc1cc(C(c2ccc(Cl)cc2)c2ccc(Cl)cc2)cc2c(NC3CCN(S(=O)(=O)C(F)(F)F)CC3)cc(=O)[nH]c12 [Compound 141, 8-((4-aminobutyl)amino)-6-(bis(4-chlorophenyl)methyl)-4-((1-((trifluoromethyl)sulfonyl)piperidin-4-yl)amino)quinolin-2(1H)-one] | > 10000 | 625
19 | OC(c1ccc(Cl)cc1)(c1ccc(Cl)cc1)c1ccc2nccc(/C=C/c3ccccc3)c2c1 [Compound 501, (E)-bis(4-chlorophenyl)(4-styrylquinolin-6-yl)methanol] | > 10000 | > 10000
20 | O=c1cc(/C=C/c2ccccc2)c2cc(C(c3ccc(Cl)cc3)c3ccc(Cl)cc3)ccc2[nH]1 [Compound 502] | > 10000 | 580
21 | Clc1ccc(C(c2ccc(Cl)cc2)c2ccc3nccc(/C=C/c4ccccc4)c3c2)cc1 [Compound 503, (E)-6-(bis(4-chlorophenyl)methyl)-4-styrylquinoline] | > 10000 | 191
22 | COc1ccc(C(O)(c2ccc3nccc(/C=C/c4ccccc4)c3c2)c2nccs2)cc1 (stereo not drawn) [Compound 504, (E)-(4-methoxyphenyl)(4-styrylquinolin-6-yl)(thiazol-2-yl)methanol] | > 10000 | 342
23 | COc1ccc(C(c2ccc3nccc(/C=C/c4ccccc4)c3c2)c2nccs2)cc1 (stereo not drawn) [Compound 505, (E)-2-((4-methoxyphenyl)(4-styrylquinolin-6-yl)methyl)thiazole] | > 10000 | 326
24 | OC(c1ccc(Cl)cc1)(c1ccc2nccc(/C=C/c3ccccc3)c2c1)c1cccs1 (stereo not drawn) [Compound 506, (4-Chlorophenyl){4-[(E)-2-phenylethenyl]quinolin-6-yl}thiophen-2-ylmethanol] | > 10000 | > 10000
25 | OC(c1ccc(Cl)cc1)(c1ccsc1)c1ccc2nccc(/C=C/c3ccccc3)c2c1 (stereo not drawn) [Compound 507, (4-Chlorophenyl){4-[(E)-2-phenylethenyl]quinolin-6-yl}thiophen-3-ylmethanol] | > 10000 | 5480
26 | Clc1ccc(C(c2ccc3nccc(/C=C/c4ccccc4)c3c2)c2cccs2)cc1 (stereo not drawn) [Compound 508, 6-[(4-Chlorophenyl)(thiophen-2-yl)methyl]-4-[(E)-2-phenylethenyl]quinoline] | > 10000 | 375
27 | Clc1ccc(C(c2ccsc2)c2ccc3nccc(/C=C/c4ccccc4)c3c2)cc1 (stereo not drawn) [Compound 509, 6-[(4-Chlorophenyl)(thiophen-3-yl)methyl]-4-[(E)-2-phenylethenyl]quinoline] | > 10000 | 140
28 | Clc1ccc(C(c2ccc3nccc(/C=C/c4ccccc4)c3c2)c2nccs2)cc1 (stereo not drawn) [Compound 511, (E)-2((4-chlorophenyl)(4-styrylquinolin-6-yl)methyl)thiazole] | > 10000 | 136
29 | COc1ccc(C(O)(c2ccc(Cl)cc2)c2ccc3nc(OC(C)(C)C)cc(/C=C/c4ccccc4)c3c2)cc1 (stereo not drawn) [Compound 512, (E)-(2-(tert-butoxy)-4-styrylquinolin-6-yl)(4-chlorophenyl)(4-methoxyphenyl)methanol] | > 10000 | > 10000
30 | CC(C)(C)OC(=O)N1CC=C(c2ccnc3ccc(C(c4ccc(Cl)cc4)c4nccs4)cc23)CC1 (stereo not drawn) [Compound 513, tert-butyl 4-(6-((4-chlorophenyl)(thiazol-2-yl)methyl)quinolin-4-yl)-5,6-dihydropyridine-1(2H)-carboxylate] | > 10000 | 1500
31 | COc1ccc(C(c2ccc(Cl)cc2)c2ccc3[nH]c(=O)cc(/C=C/c4ccccc4)c3c2)cc1 (stereo not drawn) [Compound 514, (E)-6-((4-chlorophenyl)(4-methoxyphenyl)methyl)-4-styrylquinolin-2(1H)-one] | > 10000 | 426
32 | O=c1cc(Cc2ccc(OC(F)(F)F)cc2)c2cc(C(c3ccc(Cl)cc3)c3nccs3)ccc2[nH]1 (stereo not drawn) [Compound 515, 6-((4-chlorophenyl)(thiazol-2-yl)methyl)-4-(4-(trifluoromethoxy)benzyl)quinolin-2(1H)-one] | > 10000 | 366
33 | OC(c1ccc(Cl)cc1)(c1ccc2nccc(/C=C/c3ccccc3)c2c1)c1cscn1 (stereo not drawn) [Compound 517, (E)-(4-chlorophenyl)(4-styrylquinolin-6-yl)(thiazol-4-yl)methanol] | 340 | 884
